Test results reported in PubChem BioAssay (NCI).
“And” between values parts separate entries of the source, which are not always exact repeats. Equal values may be shown once.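 Growth conditions: 96-well plates. Treatment: test compound, 48 hours, 5 concentrations. Analysis: linear interpolation between bracketing concentrations; unreached endpoints set to highest concentration. Here, GI50 denotes the concentration required for 50% inhibition of growth. TGI: total growth inhibition.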

Assays:
Experiment in all cases: NCI tumour cell line growth inhibition, 48 h
DMS 273 small cell lung = system: DMS 273 small cell lung
LXFL 529 NSCLC = system: LXFL 529 NSCLC
M19-MEL melanoma = system: M19-MEL melanoma
KM20L2 colon = system: KM20L2 colon
DMS 114 small cell lung = system: DMS 114 small cell lung
DLD-1 colon = system: DLD-1 colon
XF 498 CNS = system: XF 498 CNS
SN12K1 renal = system: SN12K1 renal
P388/ADR leukemia = system: P388/ADR leukemia
P388 leukemia = system: P388 leukemia
RXF-631 renal = system: RXF-631 renal

SMILES	TGI (DMS 273 small cell lung)	TGI (LXFL 529 NSCLC) [µM]	TGI (M19-MEL melanoma)	TGI (KM20L2 colon)	TGI (DMS 114 small cell lung) [µM]	TGI (DLD-1 colon)	TGI (XF 498 CNS)	TGI (SN12K1 renal)	TGI (P388/ADR leukemia)	TGI (P388 leukemia)	GI50 (DMS 273 small cell lung) [nM]	GI50 (SN12K1 renal) [nM]	GI50 (P388/ADR leukemia) [nM]	GI50 (XF 498 CNS) [nM]	TGI (RXF-631 renal) [µM]	GI50 (P388 leukemia)	GI50 (KM20L2 colon)
Cc1c2cc[n+](C)cc2c(C)c2c1[nH]c1ccc(OCC(F)(F)F)cc12	> 31.7 µM and 30.9 µM	6.5	> 24.5 µM	> 100 µM	> 21.6	> 100 µM	–	–	–	–	–	–	–	–	–	–	–
CCCCn1c(-c2ccccc2)cs/c1=N\NC(=O)Cn1c(C)nc2ccccc21	> 100 µM	> 100	> 100 µM	> 100 µM	–	> 100 µM	> 100 µM	–	–	–	–	–	–	–	–	–	–
CSCSCC(CO)NC(=O)/C=C\c1c(C)[nH]c(=O)[nH]c1=O (configuration not stated)	267 µM	–	111 µM	129 µM	66.5	160 µM	9.99 µM	84900 nM	332 µM	164 µM	–	–	–	–	–	–	–
N/C(=N\N=C/c1c(O)cc(O)cc1O)NO	> 31.6 µM	–	> 100 µM	> 100 µM	> 100	> 100 µM	–	> 100000 nM	> 100 µM	> 100 µM	–	–	–	–	–	–	–
c1ccc(C2N=C(c3ccccn3)C(c3ccccn3)=NC2c2ccccc2)cc1 (configuration not stated)	> 100 µM	> 100	> 100 µM	> 100 µM	> 100	> 100 µM	> 100 µM	–	–	–	–	–	–	–	–	–	–
CC(C)=CC(=O)OC1C2C(C)=CC(=O)C(O)C2(C)C2C3(O)OCC24C(CC(=O)OC14)C(C)C3O (configuration not stated)	0.0122 µM and 0.0241 µM	–	0.0252 µM and 0.027 µM	0.197 µM and 0.153 µM	–	0.221 µM and 0.554 µM	0.0217 µM and 0.0556 µM	16.9 nM and 21.3 nM	0.575 µM and 0.84 µM	0.00568 µM	20	4.12	181	5.43	–	–	–
O=c1[nH]c(=S)[nH]c2c1CCCN2	–	> 100	> 100 µM	–	> 100	> 100 µM	–	–	–	–	–	–	–	–	> 100	–	–
C/C(N=NS(=O)(=O)c1c(C)cc(C)cc1C)=C1\C=CC=CN1O	> 100 µM	> 100	> 100 µM	> 100 µM	> 100	> 100 µM	> 100 µM	–	–	–	–	–	–	–	–	–	–
CCN(CC)CC[n+]1ccc2c(C)c3[nH]c4ccccc4c3c(C)c2c1	1.53 µM and 1.74 µM	–	0.762 µM and 2 µM	1.51 µM and 6.24 µM	–	13.5 µM and 14.6 µM	–	1180 nM and 1800 nM	> 100 µM and 125 µM	1.41 µM and 4.27 µM	–	268	–	–	–	44.8 nM and 24 nM	270 nM and 782 nM
COC(=O)c1c(CC(=O)OC(C)C)cc2n(c1=O)Cc1c-2nc2ccccc2c1OC	> 100 µM	> 100	> 100 µM	> 100 µM	> 100	> 100 µM	> 100 µM	–	–	–	–	–	–	–	–	–	–
O=c1cc(-c2ccccc2)oc2cc(OCCCCCCCCCCOc3ccc4c(=O)cc(-c5ccccc5)oc4c3)ccc12	> 100 µM	> 100	> 100 µM	> 100 µM	> 100	–	> 100 µM	–	–	–	–	–	–	–	> 100	–	–
Cc1ccc(N2Cc3c(ccc4ccccc34)OP2(=S)N2CCCC2)cc1 (configuration not stated)	> 100 µM	–	> 100 µM	> 100 µM	–	> 100 µM	> 100 µM	> 100000 nM	> 100 µM	47.9 µM	–	–	–	–	–	–	–
O=C(O)C12C=CC(C1)c1ccccc12 (configuration not stated)	> 100 µM	> 100	> 100 µM	> 100 µM	> 100	> 100 µM	–	–	–	–	–	–	–	–	–	–	–
C=C1C(=O)OC2C[C@@]3(C)CCCC(=C)C3CC12 (some centres not stated)	10.7 µM	11.8	–	25.9 µM	29.8	14.7 µM	13.5 µM	–	–	–	–	–	–	–	–	–	–
CN1COCN=C1NC#N	–	> 100	> 100 µM	> 100 µM	> 100	> 100 µM	> 100 µM	–	–	–	–	–	–	–	> 100	–	–
NCCCNCCSP(=O)(O)O	> 750 µM	–	> 750 µM	> 750 µM	> 750	> 750 µM	> 422 µM	> 750000 nM	> 750 µM	> 750 µM	–	–	–	–	–	–	–
O=Cn1c2ccccc2c2ccccc21	> 100 µM	> 100	> 100 µM	> 100 µM	> 100	> 100 µM	> 100 µM	–	–	–	–	–	–	–	–	–	–
